Laboratory results from PMC11969171 (Biomedicine & pharmacotherapy = Biomedecine & …, 2022).
Where a chain is given by its changes, count along the chain named.

Assays:
A1R^wt [1] = molecular target: T1, A1R^wt (Homo sapiens, UniProt P30542); settings: CPA 200 nM
T1 sequence (P30542 1-326): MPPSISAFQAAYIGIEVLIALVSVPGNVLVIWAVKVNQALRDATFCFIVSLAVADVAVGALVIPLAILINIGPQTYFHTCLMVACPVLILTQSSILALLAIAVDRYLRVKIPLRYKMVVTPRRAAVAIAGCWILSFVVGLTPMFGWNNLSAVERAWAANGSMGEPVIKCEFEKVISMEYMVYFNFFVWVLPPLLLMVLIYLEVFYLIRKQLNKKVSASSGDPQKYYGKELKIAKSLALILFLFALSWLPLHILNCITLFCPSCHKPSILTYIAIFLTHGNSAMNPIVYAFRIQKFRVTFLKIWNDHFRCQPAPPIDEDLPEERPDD

A1R^G279S [2] = molecular target: T2, A1R^G279S (Homo sapiens, UniProt P30542, G279S); settings: CPA 200 nM
T2 sequence (P30542 1-326 G279S): T1 sequence (P30542 1-326) with G279S

[3] = test system: corticostriatal glutamate release; settings: rats, local application, ref [64]; cited from earlier work
A1R^wt [4] = molecular target: T1, A1R^wt; type: binding; settings: saturating concentration of DPCPX (1 µM)
A1R^G279S [5] = molecular target: T2, A1R^G279S; type: binding; settings: saturating concentration of DPCPX (1 µM)

SMILES: OC[C@H]1O[C@@H](n2cnc3c(NC4CCCC4)ncnc32)[C@H](O)[C@@H]1O [CPA, N6-cyclopentyladenosine]
- functional coupling to Gα12/13, Gαs, β-arrestin2 or GRK2 (A1R^wt [1]): No functional coupling
- time to peak of NL-generated signal (A1R^wt [1]; Gαi-LgBiT or Gαq-LgBiT, decline to basal after 1 h): 10 min
- functional coupling to Gα12/13, Gαs, β-arrestin2 or GRK2 (A1R^G279S [2]): No functional coupling

SMILES: OCCN(CCO)c1nc(N2CCCCC2)c2nc(N(CCO)CCO)nc(N3CCCCC3)c2n1 [dipyridamole]
- basal and optogenetic-induced corticostriatal glutamate release [3]: significant decrease

SMILES: CCCn1c(=O)c2[nH]c(C3CCCC3)nc2n(CCC)c1=O [DPCPX, 8-cyclopentyl-1,3-dipropylxanthine]
- displacement of CA200634 binding (A1R^wt [4]): displaced
- displacement of CA200634 binding (A1R^G279S [5]): displaced
